Results from ChEMBL document CHEMBL3734678, “Protective effect and mechanism of action of lupane triterpenes from Cornus walteri in cisplatin-induced nephrotoxicity” (2015).
Calls of active or inactive are those of the source. The calls are words filed in the database; no cut-off is given here.

What was measured:
LLC-PK1 [1] = assay: Renoprotective activity in pig LLC-PK1 cells assessed as reduction in cisplatin-induced toxicity at 125 uM preincubated for 2 hrs followed by cisplatin challenge for 24 hrs by MTT assay; type: functional, Sus scrofa; design: scale not given: the % may be the effect or the level left
LLC-PK1 [2] = assay: Renoprotective activity in pig LLC-PK1 cells assessed as reduction in cisplatin-induced cell shrank at 125 uM preincubated for 2 hrs followed by cisplatin challenge for 24 hrs by phase-contrast microscopic analysis; type: functional, cell-based; details: Sus scrofa
LLC-PK1 [3] = assay: Renoprotective activity in pig LLC-PK1 cells assessed as reduction in cisplatin-induced progressive condensation at 125 uM preincubated for 2 hrs followed by cisplatin challenge for 24 hrs by phase-contrast microscopic analysis; type: functional, cell-based; details: Sus scrofa
LLC-PK1 [4] = assay: Renoprotective activity in pig LLC-PK1 cells assessed as reduction in cisplatin-induced nucleus break-up at 125 uM preincubated for 2 hrs followed by cisplatin challenge for 24 hrs by phase-contrast microscopic analysis; type: functional, cell-based; details: Sus scrofa
LLC-PK1 [5] = assay: Renoprotective activity against cisplatin induced toxicity in pig LLC-PK1 cells assessed as reduction in apoptotic cells at 125 uM preincubated for 2 hrs followed by cisplatin challenge for 24 hrs annexin-V-FITC and propidium iodide staining based flow cytometry; type: functional, cell-based; details: Sus scrofa
LLC-PK1 [6] = assay: Inhibition of cisplatin-induced JNK phosphorylation in pig LLC-PK1 cells at 125 uM preincubated for 2 hrs followed by cisplatin challenge for 24 hrs by western blot analysis; type: cell-based; details: Sus scrofa
LLC-PK1 [7] = assay: Inhibition of cisplatin-induced ERK phosphorylation in pig LLC-PK1 cells at 125 uM preincubated for 2 hrs followed by cisplatin challenge for 24 hrs by western blot analysis; type: cell-based; details: Sus scrofa
LLC-PK1 [8] = assay: Inhibition of cisplatin-induced p38 phosphorylation in pig LLC-PK1 cells at 125 uM preincubated for 2 hrs followed by cisplatin challenge for 24 hrs by western blot analysis; type: cell-based; details: Sus scrofa
LLC-PK1 [9] = assay: Renoprotective activity in pig LLC-PK1 cells assessed as inhibition of cisplatin-induced cleaved caspase-3 expression at 125 uM preincubated for 2 hrs followed by cisplatin challenge for 24 hrs by western blot analysis; type: functional, cell-based; details: Sus scrofa
LLC-PK1 [10] = assay: Renoprotective activity in pig LLC-PK1 cells assessed as reduction in cisplatin-induced toxicity preincubated for 2 hrs followed by cisplatin challenge for 24 hrs by MTT assay; type: functional, cell-based; details: Sus scrofa
LLC-PK1 [11] = assay: Renoprotective activity in pig LLC-PK1 cells assessed as reduction in cisplatin-induced toxicity at 250 uM preincubated for 2 hrs followed by cisplatin challenge for 24 hrs by MTT assay; type: functional, Sus scrofa; design: scale not given: the % may be the effect or the level left

SMILES | Activity (LLC-PK1 [1]) [%] | Activity (LLC-PK1 [2]) | Activity (LLC-PK1 [3]) | Activity (LLC-PK1 [4]) | Activity (LLC-PK1 [5]) | inhibition (LLC-PK1 [6]) | inhibition (LLC-PK1 [7]) | inhibition (LLC-PK1 [8]) | inhibition (LLC-PK1 [9]) | Activity (LLC-PK1 [10]) | Activity (LLC-PK1 [11]) [%]
C=C(C)[C@@H]1CC[C@]2(C)CC[C@]3(C)[C@H](CC[C@@H]4[C@@]5(C)CC[C@H](O)C(C)(C)[C@@H]5CC[C@]43C)[C@@H]12 [LUPEOL] | 80 | Active | Active | Active | Active | Active | Active | Active | Active | Dose-dependent effect | 80
C=C(C)[C@@H]1CC[C@]2(C(=O)O)CC[C@]3(C)[C@H](CC[C@@H]4[C@@]5(C)C[C@@H](OC(=O)/C=C/c6ccc(O)cc6)[C@H](O)C(C)(C)[C@@H]5CC[C@]43C)[C@@H]12 | – | – | – | – | – | – | – | – | – | Dose-dependent effect | –
C=C(C)[C@@H]1CC[C@]2(C(=O)OC)CC[C@]3(C)[C@H](CC[C@@H]4[C@@]5(C)CC[C@@H](O)C(C)(C)[C@@H]5CC[C@]43C)[C@@H]12 | – | – | – | – | – | – | – | – | – | Dose-dependent effect | –
C=C(C)[C@@H]1CC[C@]2(CO)CC[C@]3(C)[C@H](CC[C@@H]4[C@@]5(C)CC[C@H](OC(C)=O)C(C)(C)[C@@H]5CC[C@]43C)[C@@H]12 | 80 | Active | Active | Active | Active | Active | Active | Active | Active | Dose-dependent effect | 80
C=C(C=O)[C@@H]1CC[C@]2(C(=O)O)CC[C@]3(C)[C@H](CC[C@@H]4[C@@]5(C)CC[C@H](O)C(C)(C)[C@@H]5CC[C@]43C)[C@@H]12 | 80 | Active | Active | Active | Active | Active | Active | Active | Active | Dose-dependent effect | 80
C=C(C)[C@@H]1CC[C@]2(C(=O)O)CC[C@]3(C)[C@H](CC[C@@H]4[C@@]5(C)CC[C@H](O)C(C)(C)[C@@H]5CC[C@]43C)[C@@H]12 [BETULINIC ACID] | 80 | Active | Active | Active | Active | Active | inactive | Active | Active | Dose-dependent effect | 80
C=C(C)[C@@H]1CC[C@]2(C(=O)O)CC[C@]3(C)[C@H](CC[C@@H]4[C@@]5(C)C[C@@H](O)[C@H](O)C(C)(C)[C@@H]5CC[C@]43C)[C@@H]12 | – | – | – | – | – | – | – | – | – | Dose-dependent effect | –
